Source: US11021481B2, “Substituted isoindolin-1-ones and 2,3-dihydro-1h-pyrrolo[3,4-c]pyridin-1-ones as HPK1 antagonists” (Nimbus Saturn, Inc., priority 2019, dated 2021)

What follows are compounds tested against HPK1 (Homo sapiens (Human), UniProt Q92918) (assay: HPK1 biochemical enzyme assay (microfluidic mobility shift assay)). Details: 1.5 nM HPK1, ATP 1 mM final, 30 min preincubation, 60 min at RT, Caliper EZ Reader; read-out: HPK1 1000UMATP caliper IC50.
Description: HPK1 biochemical enzyme assay: HPK1 enzyme inhibition was measured using a microfluidic mobility shift assay. […] Test compounds were titrated in ten point curves (top final assay concentration 3 μM), and preincubated with enzyme/substrate mix for 30 min prior to initiation of the reaction by addition of ATP (1 mM final concentration) and substrate (1 μM final concentration; Carna Biosciences) diluted in assay buffer supplemented by MgCl2 (final assay concentration of 5 mM). Following 60 min incubation at RT, the reaction was terminated by addition of 60 µl/well termination buffer (Carna Biosciences) and signal determination using aCaliper EZ Reader (Perkin Elmer, UK).
The compound numbers correspond to the compound numbers in Table 1.

Chain of HPK1 (Q92918 whole entry): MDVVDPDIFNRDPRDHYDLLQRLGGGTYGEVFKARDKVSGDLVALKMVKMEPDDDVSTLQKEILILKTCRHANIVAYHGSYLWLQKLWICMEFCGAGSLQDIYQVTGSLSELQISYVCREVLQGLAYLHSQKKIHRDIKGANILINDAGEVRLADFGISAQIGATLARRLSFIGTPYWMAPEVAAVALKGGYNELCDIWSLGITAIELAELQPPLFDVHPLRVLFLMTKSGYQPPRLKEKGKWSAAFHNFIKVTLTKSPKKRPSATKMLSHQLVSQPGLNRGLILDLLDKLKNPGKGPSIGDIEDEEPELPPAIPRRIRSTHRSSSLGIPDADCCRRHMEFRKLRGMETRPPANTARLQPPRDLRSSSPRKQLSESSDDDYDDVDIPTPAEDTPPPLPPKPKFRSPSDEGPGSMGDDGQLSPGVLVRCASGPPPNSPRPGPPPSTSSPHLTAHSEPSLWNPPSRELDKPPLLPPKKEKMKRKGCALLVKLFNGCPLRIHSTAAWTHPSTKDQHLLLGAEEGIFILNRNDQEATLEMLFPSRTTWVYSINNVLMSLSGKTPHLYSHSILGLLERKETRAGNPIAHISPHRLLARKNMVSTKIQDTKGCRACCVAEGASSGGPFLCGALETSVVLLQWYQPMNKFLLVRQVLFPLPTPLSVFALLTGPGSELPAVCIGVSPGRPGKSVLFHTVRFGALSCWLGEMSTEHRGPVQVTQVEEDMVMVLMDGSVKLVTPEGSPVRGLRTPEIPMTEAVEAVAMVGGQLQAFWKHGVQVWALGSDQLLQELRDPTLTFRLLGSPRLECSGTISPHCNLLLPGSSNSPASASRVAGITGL

IC50 [nM] | Structure (SMILES)
< 100 | Cn1cnc2c(-c3ccc(Nc4ccc(N5CCC(O)CC5)cn4)c4c3CNC4=O)ccnc21 [I-152, 7-[[5-(4-hydroxy-1-piperidyl)-2-pyridyl]amino]-4-(3-methylimidazo [4,5-b]pyridin-7-yl)isoindolin-1-one]
< 100 | CCNC(=O)c1ccc(Nc2ccc(-c3ccnc4c3ccn4C)c3c2C(=O)NC3)nc1 [I-109, N-ethyl-6-[[7-(1-methylpyrrolo [2,3-b]pyridin-4-yl)-3-oxo-isoindolin-4-yl]amino]pyridine-3-carboxamide]
> 1000 | Cn1nccc2c(-c3ccc(Nc4ccc(N5CCC(O)CC5)cn4)c4c3CNC4=O)cnc1-2 [I-375, 7-((5-(4-hydroxy-piperidin-1-yl)pyridin-2-yl)amino)-4-(1-methyl-1H-pyrrolo[2,3-c]pyridazin-5-yl)isoindolin-1-one]
< 100 | Cn1ccc2c(-c3ncc(Nc4cccc(N5CCC[C@@H](N)C5)n4)c4c3CNC4=O)ccnc21 [I-231, 7-[[6-[(3R)-3-amino-1-piperidyl]-2-pyridyl]-amino]-4-(1-methylpyrrolo [2,3-b]pyridin-4-yl)-2,3-dihydropyrrolo [3,4-c]pyridin-1-one]
< 100 | Cc1cc(Nc2cnc(-c3ccnc4c3ccn4C)c3c2C(=O)NC3)nc(N2CC[C@H]3CNC[C@H]32)c1 [I-641, 7-((6-((3aS.6aS)-hcxahydropyrr-olo[3,4-b]pyrrol-1(2H)-yl)-4-methylpyridin-2-yl)amino)-4-(1-methyl-1H-pyrrolo[2,3-b]pyridin-4-yl)-2,3-dihydro-1H-pyrrolo[3,4-c]pyridin-1-one]
< 100 | Cn1ccc2c(-c3ccc(Nc4ccc(N5CCC(O)CC5)cn4)c4c3CNC4=O)ncnc21 [I-144, 7-[[5-(4-hydroxy-1-piperidyl)-2-pyridyl]amino]-4-(7-methylpyrrolo [2,3-d]pyrimidin-4-yl)isoindolin-1-one]
< 100 | CN1CC[C@H](c2ccc(Nc3ccc(-c4cnc5cc(F)ccn45)c4c3C(=O)NC4)nc2)C1=O [I-336, (R)-4-(7-fluoroimidazo [1,2-a]pyridin-3-yl)-7-((5-(1-methyl-2-oxopyrrolidin-3-yl)pyridin-2-yl)amino)isoin-dolin-1-one]
< 100 | COc1cccn2c(-c3ccc(Nc4ccc(N5CCC(O)CC5)cn4)c4c3CNC4=O)cnc12 [I-166, 7-[[5-(4-hydroxy-1-piperidyl)-2-pyridyl]amino]-4-(8-methoxy-imidazo[1,2-a]pyridin-3-yl)isoindolin-1-one]
< 100 | CN1CCN(c2ccc(Nc3ccc(-c4cnc5c(C#N)cccn45)c4c3C(=O)NC4)nc2)CC1 [I-74, 3-[7-[[5-(4-methylpiperazin-1-yl)-2-pyridyl]amino]-1-oxo-isoindolin-4-yl]imidazo[1,2-a]pyridine-8-carbonitrile]
< 100 | O=C1NCc2c(-c3ccnc4c3ccn4C(F)F)ncc(Nc3ccc(N4CCC(O)CC4)cn3)c21 [I-200, 4-[1-(difluorometh-yl)pyrrolo[2,3-b]pyridin-4-yl]-7-[[5-(4-hydroxy-1-piperidyl)-2-pyridyl]-amino]-2,3-dihxdropyrrolo [3,4-c]pyridin-1-one]
> 1000 | Cn1ccc2c(-c3ccc(Nc4ccc(N5CCC(O)CC5)cn4)c4c3C(C)(C)NC4=O)ccnc21 [I-282, 7-((5-(4-hydroxypiper-idin-1-yl)pyridin-2-yl)amino)-3.3-dimethyl-4-(1-methyl-1H-pyrrolo[2,3-b]pyridin-4-yl)isoindolin-1-one]
< 100 | Cn1ccc2c(-c3ccc(Nc4ccc(C5(C)CCNCC5)cn4)c4c3CNC4=O)ccnc21 [I-272, 4-(1-methyl-1H-pyrrolo[2,3-b]pyridin-4-yl)-7-((5-(4-methylpiperidin-4-yl)pyridin-2-yl)amino)isoin-dolin-1-one]

The next lines start with the compound.

Structure (SMILES) | IC50 [nM]
CN(C)Cc1nc(Nc2ccc(-c3cnc4cc(F)ccn34)c3c2C(=O)NC3)ccc1[C@@H]1CCCO1 [I-560, (S)-7-((6-((dimethylamino)-methyl)-5-(tetrahydrofuran-2-yl)pyridin-2-yl)amino)-4-(7-fluoroimidazo [1,2-a]pyridin-3-yl)isoindolin-1-one] | < 100
O=C1NCc2c(-c3cnc4cc(F)ccn34)ccc(Nc3ccc(N4CCC[C@@]5(CNCCO5)C4)cn3)c21 [I-507, (R)-7-((5-(1-oxa-4,8-diazaspiro[5.5]undecan-8-yl)pyridin-2-yl)amino)-4-(7-fluoroimidazo [1,2-a]pyridin-3-yl)isoindolin-1-one] | < 100
O=C1NCc2c(-c3cnc4cc(F)ccn34)ncc(Nc3ccc(N4CCCC(O)(CN5CCOCC5)C4)cn3)c21 (stereo not drawn) [I-654, 4-(7-fluoroimidazo [1,2-a]pyridin-3-yl)-7-((5-(3-hydroxy-3-(morpholinomethyl)piperidin-1-yl)pyridin-2-yl)amino)-2.3-dihydro-1H-pyrrolo[3,4-c]pyridin-1-one] | < 100
Cc1cccn2c(-c3ccc(Nc4ccc(N5CCC(O)(CN6CCN(C)CC6)CC5)cn4)c4c3CNC4=O)cnc12 [I-402, 7-((5-(4-hydroy-4-((4-methylpiperazin-1-yl)methyl)piper-idin-1-yl)pyridin-2-yl)amino)-4-(8-methylimidazo [1,2-a]pyridin-3-yl)isoindolin-1-one] | < 100
CN(C)C(C)(C)C1CN(c2ccc(Nc3ccc(-c4cnc5cc(F)ccn45)c4c3C(=O)NC4)nc2)CCO1 (stereo in doubt) [I-591, (S)-7-((5-(2-(2-(dimethylami-no)propan-2-yl)morpho-lino)pyridin-2-yl)amino)-4-(7-fluoroimidazo [1,2-a]pyridin-3-yl)isoindolin-l-one] | < 100
CC(C)(N)[C@@H]1CN(c2ccc(Nc3ccc(-c4cnc5cc(F)ccn45)c4c3C(=O)NC4)nc2)CCO1 (single isomer, unassigned) [I-670] | < 100
CC(C)(O)[C@@H]1CCCN(c2ccc(Nc3cnc(-c4cnc5ccccn45)c4c3C(=O)NC4)nc2)C1 [I-220, 7-[[5-[(3R)-3-(1-hydroxy-1-methyl-ethyl)-1-piperidyl]-2-pyridyl]-amino]-4-imidazo[1,2-a]pyridin-3-yl-2,3-dihydropyrrolo [3,4-c]pyridin-1-one] | < 100
O=C1NCc2c(-c3cnc4cc(F)ccn34)ncc(Nc3ccc(N4CCC(O)CC4)cn3)c21 [I-167, 4-(7-fluoroimidazo [1,2-a]pyridin-3-yl)-7-[[5-(4-hydroxy-1-piperidyl)-2-pyridyl]amino]-2,3-dihydropyrrolo [3,4-c]pyridin-1-one] | < 100
CCOc1c(C#N)ccn2c(-c3ccc(Nc4ccc(N5CCC(O)CC5)cn4)c4c3CNC4=O)cnc12 [I-185, 8-ethoxy-3-[7-[[5-(4-hydroxy-1-piperidyl)-2-pyripyl]amino]-1-oxo-isoindolin-4-yl]imidazo[1,2-a]pyridine-7-carbonitrile] | 100 to 1000
CN1CCN(c2ccc(Nc3cnc(-c4c[nH]c5cc(O)ccc45)c4c3C(=O)NC4)nc2)CC1 [I-250] | 100 to 1000
C[C@H]1COCCN1c1ccc(Nc2ccc(-c3cnc4cnccn34)c3c2C(=O)NC3)nc1 [I-314, (S)-4-(imidazo[1,2-a]pyrazin-3-yl)-7-((5-(3-methylmorpho-lino)pyridin-2-yl)amino)isoin-dolin-1-one] | < 100
C[C@@H](c1ccc(Nc2ccc(-c3cnc4cc(F)ccn34)c3c2C(=O)NC3)nc1)N1CCC(O)CC1 [I-526, (S)-4-(7-fluoroimidazo [1,2-a]pyridin-3-yl)-7-((5-(l-(4-hydroxypiperidin-1-yl)ethyl)pyridin-2-yl)amino)isoin-dolin-1-one] | < 100
Cc1cc(Nc2ccc(N3CCC(O)CC3)cn2)c2c(c1-c1cnc3cc(F)ccn13)CNC2=O [I-389, 4-(7-fluoroimidazo [1,2-a]pyridin-3-yl)-7-((5-(4-hydroxypiperidin-1-yl)pyridin-2-yl)amino)-5-methylisoindol in-1-one] | < 100
CN(C)Cc1nc(Nc2ccc(-c3cnc4cc(F)ccn34)c3c2C(=O)NC3)ccc1N1CCC[C@H](C(C)(C)O)C1 [I-746, (S)-7-((6-((dimethylamino)-methyl)-5-(3-(2-hydroxypropan-2-yl)piperidin-1-yl)pyridin-2-yl)amino)-4-(7-fluoroimidazo [1,2-a]pyridin-3-yl)isoindolin-1-one] | < 100
O=C1NCc2c(-c3cnc4cc(F)ccn34)ccc(Nc3ccc(N4CCC[C@@H](O)C4)cn3)c21 [I-174, 4-(7-fluoroimidazo [1,2-a]pyridin-3-yl)-7-[[5-[(3R)-3-hydroxy-1-piperipyl]-2-pyripyl]amino] isoindolin-1-one] | < 100
O=C1NCc2c(-c3cnc4c(F)cccn34)ccc(Nc3ccc(N4CCC(O)CC4)cn3)c21 [I-130, 4-(8-fluoroimidazo [1,2-a]pyridin-3-yl)-7-[[5-(4-hydroxy-1-piperidyl)-2-pyridyl]amino] isoindolin-1-one] | < 100
Cc1cc2c(-c3ncc(Nc4ccc(N5CCC[C@H](C(C)(C)O)C5)cn4)c4c3CNC4=O)ccnc2n1C [I-229] | < 100
O=C1NCc2c(-c3cnc4c(F)cccn34)ncc(Nc3ccc(N4CC[C@@H](F)[C@@H](O)C4)cn3)c21 [I-659] | < 100
CC(C)(O)[C@H]1CCCN(c2ccc(Nc3cnc(-c4cnc5c(F)cccn45)c4c3C(=O)NC4)nc2)C1 [I-243, 4-(8-fluoroimidazo [1,2-a]pyridin-3-yl)-7-[[5-[(3S)-3-(1-hydroxy-1-methyl-ethyl)-1-piperidyl]-2-pyridyl]-amino]-2,3-dihydropyrrolo [3,4-c]pyridin-1-one] | < 100
O=C1NCc2c(-c3cnc4ccc(C(F)(F)F)cn34)ccc(Nc3ccc(N4CCC(O)CC4)cn3)c21 [I-132] | > 1000
O=C1NCc2c(-c3c[nH]c4ccccc34)ncc(Nc3ccc(N4CCOCC4)cn3)c21 [I-3, 4-(1H-indo1-3-yl)-7-[(5-morpholino-2-pyridyl)amino]-2,3-dihydropyrrolo [3,4-c] pyridin-1-one] | 100 to 1000
